Laboratory results published in patent US20190382827A1, “USE OF MICROBIAL METABOLITES FOR TREATING DISEASES” (Yeda Research and Development Co. Ltd., priority 2015, published 2019).

Tests used:
[1] = tested on: NLRP6 inflammasome; details: for taurine-mediated increase in IL-18 production: organoids, histamine and spermine supplemented in addition to taurine
Procedure: (I, J) IL-18 production by WT (I) and Nlrp6^−/− (J) colonic organoids incubated with either taurine or taurine+histamine+spermine.
(K) Representative organoid images from experiments shown in (I) and (J).

[2] = target: T1, colonic NLRP6 inflammasome (Mus musculus, UniProt Q91WS2); test: Metabolites in the drinking water of mice, colonic inflammasome readouts; format: in vivo; details: for colonic lamina propria hematopoietic cell populations: WT mice drinking for 14 days, FACS; for colonic caspase-1 activation (activated caspase-1 levels): WT mice, drinking water for 14 days
T1 construct: in colon tissue obtained from WT mice drinking taurine for 14 days; from tissue; host or cells: colon of living WT mice (SPF for A4; germ-free for A5)
T1 sequence (Q91WS2 1-869): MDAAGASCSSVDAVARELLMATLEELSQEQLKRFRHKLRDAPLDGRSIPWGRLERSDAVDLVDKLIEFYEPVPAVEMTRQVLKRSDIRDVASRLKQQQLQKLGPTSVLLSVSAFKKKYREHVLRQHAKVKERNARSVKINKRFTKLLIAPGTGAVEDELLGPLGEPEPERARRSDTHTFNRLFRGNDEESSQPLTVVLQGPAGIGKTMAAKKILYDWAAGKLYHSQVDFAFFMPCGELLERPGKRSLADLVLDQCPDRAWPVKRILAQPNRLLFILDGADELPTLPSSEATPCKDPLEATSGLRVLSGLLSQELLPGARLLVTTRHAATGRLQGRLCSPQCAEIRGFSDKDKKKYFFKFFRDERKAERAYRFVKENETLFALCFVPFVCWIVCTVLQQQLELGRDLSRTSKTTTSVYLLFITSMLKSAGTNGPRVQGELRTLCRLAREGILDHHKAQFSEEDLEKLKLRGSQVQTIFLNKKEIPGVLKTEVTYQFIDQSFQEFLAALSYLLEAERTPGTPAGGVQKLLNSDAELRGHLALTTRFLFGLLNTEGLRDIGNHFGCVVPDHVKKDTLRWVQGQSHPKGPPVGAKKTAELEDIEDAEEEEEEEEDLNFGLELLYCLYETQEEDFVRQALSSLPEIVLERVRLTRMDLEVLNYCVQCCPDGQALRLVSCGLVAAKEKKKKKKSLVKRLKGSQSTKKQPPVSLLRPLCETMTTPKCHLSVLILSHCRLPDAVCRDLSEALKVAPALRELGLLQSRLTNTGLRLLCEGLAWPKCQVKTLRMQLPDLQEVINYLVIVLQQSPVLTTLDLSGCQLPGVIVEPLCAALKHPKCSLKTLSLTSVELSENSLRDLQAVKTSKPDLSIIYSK
From the text: (A, B) Immunoblot analysis (A) and quantification (B) of pro-caspase-1 (p45) and cleaved caspase-1 (p20) in colon tissue obtained from WT mice drinking taurine for 14 days.
(C) IL-18 production by colon explants obtained from WT mice drinking taurine for 14 days.
(D) Ang4 expression in sorted epithelial cells (CD45^−EpCAM^+) obtained from WT mice drinking taurine for 14 days.
(I) IL-18 production by colon explants from WT, Asc^−/− or Nlrp6^−/− mice drinking taurine for 14 days.
(J, K) Immunoblot analysis (J) and quantification (K) of pro-caspase-1 (p45) and cleaved caspase-1 (p20) in colon tissue obtained from WT mice drinking histamine with or without spermine for 14 days.
Colons were excised and washed thoroughly with PBS, homogenized in RIPA buffer containing protease inhibitors, incubated for 20 min in 4° C. and centrifuged for 20 min, 14,000 rpm at 4° C. Samples were separated on 15% acrylamide gels and transferred onto nitrocellulose membranes. Western blot analysis was performed using anti-caspase 1 p20 polyclonal antibody (Adipogen, AG-20B-0042B-C100) and Goat anti mouse antibody (Jackson ImmunoResearch, 115-035-003). Band density was calculated using ImageJ software.
Concentrations of IL-18 in the serum or culture supernatants were measured using ELISA. Plates were coated over night with IL-18 (MBL, B004-2), incubated for 4 hours with supernatant or serum. Samples were then washed and plates were incubated with anti-mouse IL-18-biotin antibody (D048-6 MBL) for 1 hour and HRP-Avidin (BioLegend) for 1 hour before quantification.
Tissues were preserved in RNAlater solution (Ambion) and subsequently homogenized in Tri Reagent (Fox et al.). RNA was purified according to the manufacturer's instructions. Two microgram of total RNA was used to generate cDNA (HighCapacity cDNA Reverse Transcription kit; Applied Biosystems). RealTime-PCR was performed using gene-specific primer/probe sets (Applied Biosystems) and Kapa Probe Fast qPCR kit (Kapa Biosystems) on a Viia7 instrument (Applied Biosystems). PCR conditions were 95° C. for 20 s, followed by 40 cycles of 95° C. for 3 s and 60° C. for 30 s. Data were analyzed using the deltaCt method with hprt serving as the reference housekeeping gene.
To provide in-vivo validation to the above metabolite activities and to further characterize their effects on the host-microbiome interface, we administered taurine to mice in the drinking water. […] To test this notion directly, either LPS (a known ‘signal I’), taurine, or both were administered to GF WT mice. […] In contrast to taurine, in-vivo administration of histamine and spermine reduced the levels of activated caspase-1 (FIGS. 6J and 6K), while not altering the composition of hematopoietic cells in the lamina propria (FIG. 13D).

Compound	organoid (spheroid) growth or morphology [1]	taurine-mediated increase in IL-18 production [1]	colonic lamina propria hematopoietic cell populations [2]	colonic caspase-1 activation (activated caspase-1 levels) [2]	IL-18 secretion ([1]; WT organoids)	IL-18 induction ([2]; Asc-/- or Nlrp6-/- mice drinking taurine for 14 days)	IL-18 secretion ([2]; colon explants from WT mice drinking for 14 days)	IL-18 mRNA levels ([2]; colon of WT mice drinking for 14 days)	epithelial Ang4 production ([2]; sorted epithelial cells from WT mice drinking for 14 days)
NCCc1c[nH]cn1 [histamine]	not affecting	diminished	not altering	reduced					
NCCCNCCCCNCCCN [spermine]	not affecting	diminished	not altering	reduced					
NCCS(=O)(=O)O [taurine]	not affecting		not accompanied by alterations	marked activation	induced	no IL-18 induction	marked activation	not affecting	marked activation
